Source: PMC7801526, “Cryo-EM structure of Helicobacter pylori urease with an inhibitor in the active site at 2.0 Å resolution” (Nature Communications, 2021)

Key:
[1] = target: T1, urease, catalytic subunit UreB (Helicobacter pylori, UniProt P69996); test: phenol red assay on purified urease (IC50 […], Ki by Cheng-Prusoff); type: biochemical
T1 construct: with UreA

[2] = target: T1, urease, catalytic subunit UreB; test: cryo-EM structure at […] Å; phenol red assay on purified urease (IC50 […], Ki by Cheng-Prusoff); type: biochemical

T1 sequence (P69996 whole entry): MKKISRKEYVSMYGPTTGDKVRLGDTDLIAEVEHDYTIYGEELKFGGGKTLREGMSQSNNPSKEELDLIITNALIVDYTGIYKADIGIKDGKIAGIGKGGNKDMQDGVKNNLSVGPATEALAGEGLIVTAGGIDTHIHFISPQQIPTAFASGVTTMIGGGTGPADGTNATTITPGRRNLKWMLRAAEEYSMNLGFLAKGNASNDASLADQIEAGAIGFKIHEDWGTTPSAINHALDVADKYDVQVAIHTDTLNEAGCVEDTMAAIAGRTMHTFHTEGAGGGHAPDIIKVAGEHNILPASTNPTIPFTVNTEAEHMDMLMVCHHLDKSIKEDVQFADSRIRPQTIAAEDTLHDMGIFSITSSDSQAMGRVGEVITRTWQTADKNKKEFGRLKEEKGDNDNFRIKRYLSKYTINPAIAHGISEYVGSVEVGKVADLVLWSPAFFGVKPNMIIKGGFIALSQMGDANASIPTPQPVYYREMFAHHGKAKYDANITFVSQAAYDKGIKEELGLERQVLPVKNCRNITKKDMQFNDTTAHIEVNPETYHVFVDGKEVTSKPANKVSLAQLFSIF
T1 sequence (P14916 whole entry, further chain): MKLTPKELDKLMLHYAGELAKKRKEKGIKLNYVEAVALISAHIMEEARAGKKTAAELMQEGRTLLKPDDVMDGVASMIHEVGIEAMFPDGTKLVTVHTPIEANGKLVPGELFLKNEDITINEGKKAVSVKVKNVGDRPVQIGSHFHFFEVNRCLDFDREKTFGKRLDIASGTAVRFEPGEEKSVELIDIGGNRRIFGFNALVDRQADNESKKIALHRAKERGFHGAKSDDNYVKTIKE

| Compound | Ki [1] | Ki [2] |
| --- | --- | --- |
| Cc1cc(C)cc(-n2ccnc2SCC(=O)NO)c1 [SHA, 2-{[1-(3,5-dimethylphenyl)-1H-imidazol-2-yl]sulfanyl}-N-hydroxyacetamide] | 0.63 µM | – |
| OCCS [BME, β-mercaptoethanol] | – | 435 µM |
